According to US11667645B2, “Granzyme B directed imaging and therapy” (CytoSite Biopharma Inc., priority 2018, dated 2023):
Read-outs that look alike come from different tables or passages of the source.

Legend:
[1] = metabolic stability assay using liver microsomes; format: in vitro ADME; settings: human liver microsomes, with NRS at 37° C.
Experimental: In addition, compounds of Formula I-VIII described above are also tested in the metabolic stability assay using liver microsomes, as provided below.
Buffer pH7.4: Prepare 1 (M) KH2PO4 and 1 (M) K2HPO4. Titrate 1(M) K2HPO4 with 1 (M) KH2PO4 to obtain pH 7.40. Dilute this buffer 10 fold in Water (30 ml buffer+270 ml of water) to obtain 100 mM phosphate buffer. Adjust pH to 7.40±0.02 using 5(N) HCl or 5(N) NaOH.
NADPH Regeneration System (NRS): Prepare a solution containing 13 mM NADP, 33 mM Glucose-6-phosphate, 33 mM MgCl2 and 4 U/ml Glucose-6-phosphate dehydrogenase in buffer.
Liver Microsome (LM) suspension: Thaw LM vial on ice, then mix 1.0 ml LM (20 mg/ml) with 19 ml buffer [final LM Conc: 1 mg/ml]
LM+NRS suspension: Mix 5.0 ml NRS with 20 ml LM suspension [final LM Conc: 0.8 mg/ml]
System suitability standard: a synthesized compound having Mol wt 686.2 used as System suitability standard. Dissolve this compound in ice-cold acetonitrile to obtain concentration of 0.1 μg/ml and store at 4° C.
Compound Stock: 10 mM in DMSO
Sub stock (100 μM): 4 μl of 10 mM Compound Stock+[…] Acetonitrile
Working plate (2 μM): 10 μl of 100 μM Sub stock+490 μl buffer
Incubate all plastic materials including tips at 37° C. overnight.
Incubate LM suspension and NRS at 37° C. for 15 min before use.
Add 40 μl buffer to the wells of blank plate.
Add 40 μl compound (from working plate) to 0, 5, 10, 20, 30 and 60 min plates.
Initiate reaction by adding 40 μl of LM+NRS suspension in each plate.
Terminate reaction by adding 240 μl ice-cold acetonitrile containing system suitability standard at designated time points. For T=0 add 240 μl ice-cold acetonitrile containing system suitability standard before LM+NRS addition.
Centrifuge (3500 rpm, 20 min and 15° C.) the plates.
Mix 110 μl supernatant with 110 μl water and quantitate amount of Compound in the solution using LC-MS/MS.
For Scaled CLint & Predicted CL use the relevant physiological parameters, as applicable.
Human LM: Corning, Cat #25117
Mouse LM: Xenotech, Cat #M1000
(2) Volumes mentioned in the protocol are representative values and may change depending on number of test compounds.
(3) It is assumed that the compounds are chemically stable in the assay system/buffer.
The metabolic stability assay described above can be performed using different test concentrations, LM Concentrations, or time points.
Certain compounds of this disclosure were tested in the microsomal stability assay provided above.

[2] = target: Granzyme B (human lymphocytes) (Homo sapiens (Human), UniProt P10144); experiment: human Granzyme B biochemical assay
Granzyme B (human lymphocytes), sequence (P10144 21-247): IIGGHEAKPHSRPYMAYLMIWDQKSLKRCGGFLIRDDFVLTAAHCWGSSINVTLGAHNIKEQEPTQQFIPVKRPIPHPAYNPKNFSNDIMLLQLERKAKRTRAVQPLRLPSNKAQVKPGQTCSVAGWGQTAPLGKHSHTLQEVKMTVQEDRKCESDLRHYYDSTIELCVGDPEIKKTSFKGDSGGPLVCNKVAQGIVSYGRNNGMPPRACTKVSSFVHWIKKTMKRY
Summary of the method: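 Fluorogenic Ac-IETD-AFC cleavage (Ex 400/Em 505 nm) read after 60 min at 22 °C, following 30 min, 22 °C enzyme–compound pre-incubation. Working stocks: enzyme 10 nM in 0.1% BSA buffer, substrate 800 µM, compound 8 points, 3.16-fold from 40 µM. Controls set 0% (DMSO) and 100% (standard inhibitor) inhibition; IC50 fitted.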

[3] = Granzyme B (human lymphocytes) 5 nM, substrate Ac-IETD-AFC 200 μM, Cpd incubation with enzyme 30 mins, 22° C., read time 60 mins, read-out: IC50
[4] = Granzyme B IC50 as repeated in Table 7, read-out: IC50

| SMILES | HLM % remaining @ 30 min [1] | IC50 [2] [nM] | IC50 ([2]; Granzyme B IC50 as repeated in Table 7) [nM] | IC50 [2, 3] [nM] | IC50 [2, 4] [nM] |
| --- | --- | --- | --- | --- | --- |
| CC[C@H](C)[C@H](NC(=O)CF)C(=O)N[C@H]1COc2cccc3c2N(C1=O)[C@H](C(=O)NCc1c[nH]nn1)C3 [Compound C098, (1S,8S)-8-[(2S,3S)-2-(2-Fluoro-acetylamino)-3-methyl-pentanoylamino]-9-oxo-1,2,8,9-tetrahydra-7H-6-oxa-9a-aza-benzo[cd]azulene-1-carboxylic acid (1H-[1,2,3]triazol-4-ylmethyl)-amide] | *** (the symbol “***” indicates a remaining percentage of 71-100%) | 1 to 300 | 1 to 300 |  |  |
| CC[C@H](C)[C@H](NC(=O)COCCF)C(=O)N[C@H]1COc2cccc3c2N(C1=O)[C@H](C(=O)NCc1c[nH]nn1)C3 [Compound C099, (1S,8S)-8-{(2S,3S)-2-[2-(2-Fluoro-ethoxy)-acetylamino]-3-methyl-pentanoylamino}-9-oxo-1,2,8,9-tetrahydro-7H-6-oxa-9a-aza-benzo[cd]azulene-1-carboxylic acid (1H-[1,2,3]triazol-4-ylmethyl)-amide] | *** (the symbol “***” indicates a remaining percentage of 71-100%) |  |  | 1 to 300 | 1 to 300 |
| CC(C)[C@H](NC(=O)COCCF)C(=O)N[C@H]1COc2cccc3c2N(C1=O)[C@H](C(=O)NCc1c[nH]nn1)C3 [Compound C103, (1S,8S)-8-{(S)-2-[2-(2-Fluoro-ethoxy)-acetylamino]-3-methyl-butyrylamino}-9-oxo-1,2,8,9-tetrahydro-7H-6-oxa-9a-aza-benzo[cd]azulene-1-carboxylic acid (1H-[1,2,3]triazol-4-ylmethyl)-amide] | *** (the symbol “***” indicates a remaining percentage of 71-100%) |  |  | 1 to 300 | 1 to 300 |
| CC[C@H](C)[C@H](NC(=O)c1ccc(F)nc1)C(=O)N[C@H]1CCc2cccc3c2N(C1=O)[C@H](C(=O)NCc1c[nH]nn1)C3 [Compound C140, (2S,5S)-5-{(2S,3S)-2-[(6-Fluoro-pyridine-3-carbonyl)-amino]-3-methyl-pentanoylamino}-4-oxo-1,2,4,5,6,7-hexahydro-azepino[3,2,1-hi]indole-2-carboxylic acid (1H-[1,2,3]triazol-4-ylmethyl)-amide] | *** (the symbol “***” indicates a remaining percentage of 71-100%) |  |  | 1 to 300 | 1 to 300 |
| CC[C@H](C)[C@H](NC(=O)c1ccnc(F)c1)C(=O)N[C@H]1CCc2cccc3c2N(C1=O)[C@H](C(=O)NCc1c[nH]nn1)C3 [Compound C141, (2S,5S)-5-{(2S,3S)-2-[(2-Fluoro-pyridine-4-carbonyl)-amino]-3-methyl-pentanoylamino}4-oxo-1,2,4,5,6,7-hexahydro-azepino[3,2,1-hi]indole-2-carboxylic acid (1H-[1,2,3]triazol-4-ylmethyl)-amide] | *** (the symbol “***” indicates a remaining percentage of 71-100%) |  |  | 1 to 300 | 1 to 300 |
